Reference: patent EP1130064A1, “DYE COMPOSITION, INK COMPOSITION, AND INK-JET RECORDING METHOD” (Nippon Kayaku Kabushiki Kaisha, priority 1998, dated 2000)

Assays:
[1] = Light fastness of recorded image (carbon arc fade meter); format: physicochemical; details: carbon arc 40 hours; for Light fastness Judgment: blue scale grade JIS L-0841; for Light fastness (ΔE): color difference before/after
From the text: (§1) By using an ink-jet printer (Trade name: PICTY80L, made by NEC KK), ink-jet printing was done on five types of recording materials: a plain paper(Printer Paper A4, TLB5A4S, made by Canon KK), a special paper A(Color BJ Paper LC101, made by Canon KK), a special paper B(Color Image Jet Coat Paper STX73A4, made by Sharp KK), a glossy film A(Special Glossy Film MJA4SP6, made by Seiko-Epson KK), and a glossy film B(Color BJ Photo Sheet Film CA-101, made by Canon KK). The test results on hue, vividness, light fastness, and water fastness in recorded images pictured by the water-based yellow ink composition ( X=H, M=Na in Formula (1)) of the present invention are shown in Table 2.
(§2) An ink composition for the comparative example was prepared same as in the above (A), but the ink composition contained C.I. Acid Yellow 17, an azo dye generally applied for an ink-jet yellow dye in place of the dye composition in Table 1 and was adjusted to coincide in optical density with the yellow ink of the present invention. The test results on hue, vividness, light fastness, and water fastness in recorded images pictured by the ink composition for the comparative example also are shown in Table 2. Hue and vividness in the color sample of JNC's JAPAN COLOR are shown in Table 2 (The paper of the color sample Japan Color Standard Paper a paper). (C) Assessment of recorded image
A carbon arc fade meter ( by Suga Testing Machine Co.) was used to irradiate carbon arc on the recorded image for 40 hours. Grade was determined based on blue scale grade as prescribed in JIS L-0841. Color difference (ΔE) between before and after the irradiation also was determined by using the above colorimetry.

[2] = Water fastness of recorded image (stirred in water); format: physicochemical; details: stirred in water 2 min, dried; for Water fastness Judgment: JIS fading gray scale; for Water fastness (ΔE): color difference before/after
From the text: as §1, §2
A recorded material was set in a beaker filled with water, stirred for 2 min and dried. The color fading of the recorded image after treatment was determined based on the JIS fading gray scale. Color difference (ΔE) between before and after the treatment also was determined by using the above colorimetry.

## C.I. Acid Yellow 17 [Comparative example 1]
[1]; Glossy film A
  Light fastness Judgment: Grade3-4
  Light fastness (ΔE): 17.6
[1]; Glossy film B
  Light fastness Judgment: Grade 2
  Light fastness (ΔE): 64.6
[1]; Plain paper
  Light fastness Judgment: Grade4-5
  Light fastness (ΔE): 4.5
[1]; Special paper A
  Light fastness Judgment: Grade 3
  Light fastness (ΔE): 33.5
[1]; Special paper B
  Light fastness Judgment: Grade 3
  Light fastness (ΔE): 29.4
[2]; Glossy film A
  Water fastness Judgment: Grade4-5
  Water fastness (ΔE): 6.2
[2]; Glossy film B
  Water fastness Judgment: Grade4-5
  Water fastness (ΔE): 4.7
[2]; Plain paper
  Water fastness Judgment: Grade 1
  Water fastness (ΔE): 76.8
[2]; Special paper A
  Water fastness Judgment: Grade 3
  Water fastness (ΔE): 15.7
[2]; Special paper B
  Water fastness Judgment: Grade 2
  Water fastness (ΔE): 39.6
